According to patent US20120283200A1, “PHARMACEUTICAL COMPOSITION AND METHOD FOR PREVENTING OR TREATING CHRONIC HEART DISEASE” (CHINA MEDICAL UNIVERSITY, priority 2011, published 2012):

Tested on: H9c2 cells
Assay: Cell viability assay (MTT) of H9c2 cells in hypoxia-reoxygenation model
Assay type: cell-based, rat
Settings: added 1 hour before hypoxia, 6 h hypoxia, 12 h reoxygenation, compounds 1, 3, 10 μM, metformin 10, 30, 100 μM, compared to the sham group, FIG. 1(b)
Procedure: Cell Viability Assay of H9c2 Cell in Hypoxia-Reoxygenation Model
Rat embryonic ventricular myoblast cell line, H9c2, are cultured in a DMEM medium supplemented with 10% fetal bovine serum (FBS), penicillin (10 U/mL), streptomycin (100 μg/mL) and amphotericin B (0.25 μg/mL) in 37° C. humidified 5% carbon dioxide (CO2) incubator. When the plate becomes confluent, maintain the culture at a 1:4 subculture split.
(1) H9c2 cells are cultured on a 60 mm plate (6×10^5 cells/plate) containing 10% FBS DMEM (high glucose DMEM) for 24 hours. The medium is replaced with DMEM with no serum for the starvation. At the same time, a medium containing DMEM with no glucose and no serum is adjusted to pH 6.8 and placed into a hypoxia chamber (95% N2 and 5% CO2, 37° C.) where the oxygen partial pressure is controlled to be less than 2% for a pretreatment for 24 hours. […]
Please refer to FIGS. 1(a) and 1(b), which are diagrams showing the effects of the compounds in the present invention and metformin on the viability of cells treated by the hypoxia-reoxygenation. The results are represented by the absorbance (OD) values of the hypoxia-reoxygenation treated group (IR OD)/the OD values of the control group (control OD) in FIG. 1(a) and the OD values of the drug-treated group (drug OD)/the OD values of the sham group (sham OD).

SMILES | viability of the cells treated with the hypoxia-reoxygenation (drug OD/sham OD)
CN(C)C(=N)N=C(N)N [metformin] | significantly increased
COc1cc(/C=C/C(=O)OCC2OC(Oc3ccc(C[C@H]4CO[C@H](c5ccc(O)c(OC)c5)[C@H]4CO)cc3OC)C(O)C(O)C2O)ccc1O (stereo partly drawn) [RS-47, lariciresinol 4′-(6″-O-feruloyl-β-D-glucopyranoside)] | significantly increased
